Test results as given in US10617682B2 (ROSEMAN UNIVERSITY OF HEALTH SCIENCES, priority 2017, dated 2020).

Key:
[1] = HPLC potency of freshly prepared solution against USP standard prochlorperazine maleate; format: physicochemical
Description: The mobile phase consisted of the ion-pairing solution, acetonitrile, and methanol (50:40:10). The ion pairing solution was previously prepared by dissolving 4.33 g of sodium-1-octanesulfonic acid and 4.0 mL glacial acetic acid in 1000 mL of water. The chromatographic separation was achieved using a 3.9 mm×15 cm L1 (C18) column with 5 μm particle size. The flow-rate was 1.5 mL per minute and detection wavelength was 254 nm. The HPLC analysis was carried out by injecting 20 μL of sample into the Waters Alliance HPLC with Waters photodiode array (PDA) detector. Data acquisition and analysis was performed using WATERS® EMPOWER 3 software. The HPLC method was validated according to International Council on Harmonization (ICH) guidelines for various parameters including: linearity, accuracy and precision, robustness, and ruggedness.

[2] = oral route; cited from earlier work
[3] = Forced degradation studies by HPLC; format: physicochemical; conditions: 0.1 mg/mL
Description: The specificity of the HPLC method to degradation products was also assessed by subjecting prochlorperazine to various forced degradation conditions such as hydrolysis, oxidation, photodegradation, thermal degradation and UV irradiation.
The HPLC method used in this study was able to resolve prochlorperazine sulfoxide distinctly from prochlorperazine edisylate and trifluoperazine. […] Furthermore, forced degradation studies were also performed to assess any other degradation pathways that may interfere with prochlorperazine assay.

Q: For `CN1CCN(CCCN2c3ccccc3Sc3ccc(Cl)cc32)CC1` [prochlorperazine edisylate], which “potency compared with USP standard prochlorperazine maleate” value [1] is on record?
A: The value was 99.7±2.3%.

Q: Which results are given for `CN1CCN(CCCN2c3ccccc3Sc3ccc(Cl)cc32)CC1` [prochlorperazine, 2-chloro-10-[3-(4-methylpiperazin-1-yl)propyl]phenothiazine]?
A: absorption [2]: low and variable absorption; degradation under acid hydrolysis ([3]; 0.1 M hydrochloric acid 1 hour): did not show prochlorperazine degradation; degradation under oxidation ([3]; 0.1 M hydrogen peroxide overnight): showed degradation; degradation under base hydrolysis ([3]; 0.1 M sodium hydroxide 1 hour): did not show prochlorperazine degradation; degradation under thermal degradation ([3]; 60° C. overnight): did not show prochlorperazine degradation; degradation under photodegradation ([3]; laboratory light overnight): did not show prochlorperazine degradation; degradation under UV irradiation ([3]; ultraviolet radiation overnight): showed degradation
